{"source": "paper PMC9306553", "about": "(Angewandte Chemie (International Ed. in English), 2022)", "key": {"CCR9 [1]": {"target": "T1, CCR9 (Homo sapiens, UniProt P51686)", "T1 sequence (P51686 1-357 isoform P51686-2)": "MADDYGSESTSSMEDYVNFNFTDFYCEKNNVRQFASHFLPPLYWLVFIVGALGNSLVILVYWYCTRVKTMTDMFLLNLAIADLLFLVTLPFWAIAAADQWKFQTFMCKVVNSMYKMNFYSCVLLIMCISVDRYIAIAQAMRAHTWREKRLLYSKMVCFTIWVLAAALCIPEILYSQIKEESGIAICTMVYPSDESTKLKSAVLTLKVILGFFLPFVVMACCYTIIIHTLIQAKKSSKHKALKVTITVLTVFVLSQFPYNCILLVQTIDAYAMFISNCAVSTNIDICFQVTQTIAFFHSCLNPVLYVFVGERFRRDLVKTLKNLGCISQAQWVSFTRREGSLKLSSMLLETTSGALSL", "assay_type": "cell-based", "conditions": "for effect on the CCR9 degradation by 13 (ELISA): co-treatment with 13, HEK293T cells transiently expressing CCR9"}, "CCR9 [2]": {"target": "T1, CCR9", "assay": "biochemical", "assay_type": "binding", "conditions": "CCR9_Nluc membranes; for Ki: tracer 3a 100 nM"}, "CCR9 [3]": {"target": "T1, CCR9", "assay": "cell-based", "conditions": "tracer 3a 120 nM, live HEK293T cells expressing CCR9_Nluc"}, "CCR9 [4]": {"target": "T1, CCR9", "assay": "cell-based", "conditions": "HEK293T cells, stimulated with CCL25 31.6 nM"}, "CCR9 [5]": {"target": "T2, CCR9 (Homo sapiens, UniProt P51686)", "T2 sequence (P51686 1-369)": "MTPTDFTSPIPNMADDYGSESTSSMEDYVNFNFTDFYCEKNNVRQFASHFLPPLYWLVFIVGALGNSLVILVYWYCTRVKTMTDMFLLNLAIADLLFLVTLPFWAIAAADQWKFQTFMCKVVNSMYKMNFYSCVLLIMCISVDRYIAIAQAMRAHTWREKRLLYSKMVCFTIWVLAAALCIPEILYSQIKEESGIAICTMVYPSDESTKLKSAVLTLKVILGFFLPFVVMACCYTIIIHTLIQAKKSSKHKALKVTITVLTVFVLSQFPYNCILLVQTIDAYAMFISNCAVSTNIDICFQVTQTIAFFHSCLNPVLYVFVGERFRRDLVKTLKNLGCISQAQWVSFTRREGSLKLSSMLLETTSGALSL", "assay": "cell-based", "assay_type": "cell-based", "conditions": "for IC50: IC50 β-arrestin2 recruitment, HEK293T cells, stimulated with CCL25 31.6 nM"}, "CCR2": {"target": "T3, CCR2 (Homo sapiens, UniProt P41597)", "T3 sequence (P41597 1-360 isoform P41597-2)": "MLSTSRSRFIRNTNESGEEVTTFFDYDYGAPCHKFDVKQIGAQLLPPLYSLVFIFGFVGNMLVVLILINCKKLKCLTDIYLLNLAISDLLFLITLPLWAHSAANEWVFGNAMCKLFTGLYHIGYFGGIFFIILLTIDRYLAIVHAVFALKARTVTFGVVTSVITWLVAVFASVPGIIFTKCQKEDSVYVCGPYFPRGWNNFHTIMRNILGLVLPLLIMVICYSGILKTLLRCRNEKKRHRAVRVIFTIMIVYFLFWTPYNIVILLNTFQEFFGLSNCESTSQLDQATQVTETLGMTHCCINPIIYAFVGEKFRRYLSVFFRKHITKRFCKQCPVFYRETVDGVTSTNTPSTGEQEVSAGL", "assay": "BRET-based G protein activation assay, CCR2", "assay_type": "cell-based", "conditions": "stimulated with CCL2 10 nM"}, "[6]": {"conditions": "pKi NanoBRET (membranes), mean±SEM"}, "[7]": {"conditions": "pKi NanoBRET (in cells), mean±SEM"}}}
{"molecule": "Cc1ncsc1-c1ccc(CNC(=O)[C@@H]2C[C@@H](O)CN2C(=O)[C@@H](N)C(C)(C)C)cc1", "note": "[(S,R,S)‐AHPC]", "values": [{"measurement": "effect on CCR9 levels (ELISA)", "setting": "CCR9 [1]; HEK293T cells transiently expressing CCR9, 14 h treatment", "result": "did not result in reduction of CCR9 levels"}, {"measurement": "effect on the CCR9 degradation by 13 (ELISA)", "setting": "CCR9 [1]", "result": "can be counteracted"}]}
{"molecule": "NS(=O)(=O)OC[C@@H]1C[C@@H](n2ccc3c(N[C@H]4CCc5ccccc54)ncnc32)C[C@@H]1O", "note": "[MLN4924]", "values": [{"measurement": "effect on the CCR9 degradation by 13 (ELISA)", "setting": "CCR9 [1]", "result": "can be reduced"}]}
{"molecule": "CC(C)(C)c1ccc(S(=O)(=O)Nc2ccc(Cl)cc2-c2nccnc2N)cc1", "note": "[compound 10]", "values": [{"measurement": "Ki", "setting": "CCR9 [2]; Ki NanoBRET (membranes)", "result": 3.51, "unit": "nM"}, {"measurement": "Ki", "setting": "CCR9 [2]; [6]", "result": 3.24, "unit": "nM"}, {"measurement": "Ki", "setting": "CCR9 [3]; Ki NanoBRET (in cells)", "result": 11.5, "unit": "nM"}, {"measurement": "Ki", "setting": "CCR9 [3]; [7]", "result": 10.5, "unit": "nM"}, {"measurement": "IC50", "setting": "CCR9 [4]; IC50 Gαo activation", "result": 14.9, "unit": "nM"}, {"measurement": "IC50", "setting": "CCR9 [4]; pIC50 Gαo activation, mean±SEM", "result": 14.8, "unit": "nM"}, {"measurement": "IC50", "setting": "CCR9 [5]", "result": 17.4, "unit": "nM"}]}
{"molecule": "CC(C)(C)c1ccc(S(=O)(=O)Nc2ccc(Cl)cc2-c2cccnc2N)cc1", "note": "[compound 11]", "values": [{"measurement": "Ki", "setting": "CCR9 [2]; Ki NanoBRET (membranes)", "result": 13, "unit": "nM"}, {"measurement": "Ki", "setting": "CCR9 [2]; [6]", "result": 12.3, "unit": "nM"}, {"measurement": "Ki", "setting": "CCR9 [3]; Ki NanoBRET (in cells)", "result": 20.5, "unit": "nM"}, {"measurement": "Ki", "setting": "CCR9 [3]; [7]", "result": 19.1, "unit": "nM"}, {"measurement": "IC50", "setting": "CCR9 [4]; IC50 Gαo activation", "result": 256, "unit": "nM"}, {"measurement": "IC50", "setting": "CCR9 [4]; pIC50 Gαo activation, mean±SEM", "result": 257, "unit": "nM"}, {"measurement": "IC50", "setting": "CCR9 [5]", "result": 166, "unit": "nM"}]}
{"molecule": "CC(C)(C)c1ccc(S(=O)(=O)Nc2ccc(Cl)cc2-c2cncnc2N)cc1", "note": "[compound 12]", "values": [{"measurement": "increase in potency compared to 1, β-arrestin recruitment", "setting": "CCR9 [5]; 12 versus 1", "result": "≈ 10 fold"}, {"measurement": "inhibition of CCR2 (G protein activation)", "setting": "CCR2", "result": "no inhibition"}]}
{"molecule": "CCL25: orthosteric CCR9 agonist (protein, UniProt O15444 24-150, looked up) C-C motif chemokine 25: QGVFEDCCLAYHYPIGWAVLRRAWTYRIQEVSGSCNLPAAIFYLPKRHRKVCGNPKSREVQRAMKLLDARNKVFAKLHHNTQTFQAGPHAVKKLSSGNSKLSSSKFSNPISSSKRNVSLLISANSGL", "values": [{"measurement": "effect on the binding of 3a to the IABS", "setting": "CCR9 [2]; 3a 100 nM, prevented binding and displacement setup", "result": "did not affect the binding"}]}
